The values that follow come from patent US12065444B2, “Substituted tetrazolo[1,5-a]pyrazines and tetrazolo[1,5-c]pyrimidines as adenosine receptor antagonists” (Crossignal Therapeutics, Inc., priority 2021, dated 2024).

The target of assay [1] is human adenosine A2a receptor (Homo sapiens, UniProt P29274). The experiment in a line: Adenosine A2a receptor whole cell cyclic AMP assay. The following applies: for inhibition at 10 µM: HEK293, 1 h, read-out: A2a @ 100 μM Adenosine (A2a cAMP IC50).
Assay [2] deals with T1, human adenosine A2b receptor (Homo sapiens, UniProt P29275).
T1 sequence (P29275 1-332): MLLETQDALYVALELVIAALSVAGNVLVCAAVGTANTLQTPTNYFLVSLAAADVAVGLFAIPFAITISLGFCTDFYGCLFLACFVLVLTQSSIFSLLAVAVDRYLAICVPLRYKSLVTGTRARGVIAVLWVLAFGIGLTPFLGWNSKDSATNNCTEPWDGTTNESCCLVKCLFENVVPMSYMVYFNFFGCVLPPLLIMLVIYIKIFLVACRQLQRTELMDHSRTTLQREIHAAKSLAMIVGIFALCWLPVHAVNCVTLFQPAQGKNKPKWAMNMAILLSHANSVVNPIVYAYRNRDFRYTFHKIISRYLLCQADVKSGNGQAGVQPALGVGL
The experiment in a line: Adenosine A2b receptor whole cell cyclic AMP assay. As to conditions: for inhibition at 10 µM: HEK293, 1 h, read-out: A2b @ 10 μM Adenosine (A2b cAMP IC50).

Setting [3] is: A2a @ 1 μM Adenosine (A2a cAMP IC50), HEK293 cells stably expressing human A2a, 1 μM adenosine, 1 hour compound treatment.
Setting [4] is: A2a @ 100 μM Adenosine (A2a cAMP IC50), HEK293 cells stably expressing human A2a, 100 μM adenosine, 1 hour compound treatment.

For orientation: pIC50 means the IC50 on a negative log10 scale, so that one unit is a factor of ten. Read a low pIC50 as a high IC50.

pIC50: −log10 of the molar value. Where only a bound is given, the exact number is not on record here.

Sequence of human adenosine A2a receptor (P29274 whole entry): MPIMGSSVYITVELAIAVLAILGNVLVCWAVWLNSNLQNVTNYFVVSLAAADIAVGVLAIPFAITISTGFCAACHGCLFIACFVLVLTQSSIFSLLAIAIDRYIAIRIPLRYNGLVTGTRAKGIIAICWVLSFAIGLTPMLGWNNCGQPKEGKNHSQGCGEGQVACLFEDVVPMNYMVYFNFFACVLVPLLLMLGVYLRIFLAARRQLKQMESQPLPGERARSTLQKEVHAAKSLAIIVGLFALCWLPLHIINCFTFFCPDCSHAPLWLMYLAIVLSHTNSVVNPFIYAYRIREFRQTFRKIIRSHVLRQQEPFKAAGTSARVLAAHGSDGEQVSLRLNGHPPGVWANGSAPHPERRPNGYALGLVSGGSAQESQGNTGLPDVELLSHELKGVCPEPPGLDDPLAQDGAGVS

With `Cc1cnc2ccc(-c3c(-c4ccc(F)cc4)nc(N)n4nnnc34)cn12` [1-25, 7-(4-fluorophenyl)-8-(3-methylimidazo[1,2-a]pyridin-6-yl)tetrazolo[1,5-c]pyrimidin-5-amine], the pIC50 is > 7.00 in assay [1] (setting [3]), 6.00 to 7.00 in assay [1] (setting [4]) and 6.00 to 7.00 in assay [2].

In the case of `Cc1cnc2ccc(-c3c(-c4ccc(F)cc4)nc(N)c4nnnn34)cn12` [1-7, 6-(4-fluorophenyl)-5-(3-methylimidazo[1,2-a]pyridin-6-yl)tetrazolo[1,5-a]pyrazin-8-amine], the figures for the pIC50 in assay [1] (setting [3]), in assay [1] (setting [4]) and in assay [2] were > 7.00, 6.00 to 7.00 and 6.00 to 7.00, respectively.

Turning to `Nc1nc(-c2ccc(F)cc2)c(-c2ccc3ncc(C(F)F)n3c2)n2nnnc12` [1-48, 5-(3-(difluoromethyl)imidazo[1,2-a]pyridin-6-yl)-6-(4-fluorophenyl)tetrazolo[1,5-a]pyrazin-8-amine], the pIC50 in assay [1] (setting [3]), in assay [1] (setting [4]) and in assay [2] was 6.00 to 7.00 in each case.

On to `Cc1ccnc2ccc(-c3c(-c4ccc(F)cc4)nc(N)c4nnnn34)cc12` [1-6, 6-(4-fluorophenyl)-5-(4-methylquinolin-6-yl)tetrazolo[1,5-a]pyrazin-8-amine], for which, in assay [1] (setting [3]), the pIC50 was > 7.00. In addition, the inhibition at 10 µM in assay [2] was < 25%.

Turning to `Cc1ccnc2ccc(-c3c(-c4ccc(F)cc4F)nc(N)c4nnnn34)cc12` [1-43, 6-(2,4-difluorophenyl)-5-(4-methylquinolin-6-yl)tetrazolo[1,5-a]pyrazin-8-amine], in assay [1] (setting [3]), the pIC50 is > 7.00. The inhibition at 10 µM in assay [1] and in assay [2] was < 25% in each case.

`Cc1ccnc2ccc(-c3c(-c4ccc(F)cc4)nc(N)n4nnnc34)cc12` [1-36, 7-(4-fluorophenyl)-8-(4-methylquinolin-6-yl)tetrazolo[1,5-c]pyrimidin-5-amine]: the pIC50 in assay [1] (setting [3]) was > 7.00; in assay [2], 6.00 to 7.00.

`COc1ccc(-c2nc(N)n3nnnc3c2-c2ccc3ncc(C)n3c2)cc1` [1-57, 7-(4-methoxyphenyl)-8-(3-methylimidazo[1,2-a]pyridin-6-yl)tetrazolo[1,5-c]pyrimidin-5-amine]: the pIC50 in assay [1] (setting [3]) was 6.00 to 7.00; in assay [1] (setting [4]), < 6.00; in assay [2], 6.00 to 7.00.

Consider `Nc1nc(-c2ccc(F)cc2)c(-c2ccc3ncc(CO)n3c2)n2nnnc12` [1-20, (6-(8-amino-6-(4-fluorophenyl)tetrazolo[1,5-a]pyrazin-5-yl)imidazo[1,2-a]pyridin-3-yl)methanol], for which the values for the pIC50 in assay [1] (setting [3]), in assay [1] (setting [4]) and in assay [2] were > 7.00, < 6.00 and 6.00 to 7.00, respectively.

For the compound `Nc1nc(-c2ccc(F)cc2)c(-c2cc(Cl)nc(C(F)(F)F)c2)c2nnnn12` [1-34, 8-(2-chloro-6-(trifluoromethyl)pyridin-4-yl)-7-(4-fluorophenyl)tetrazolo[1,5-c]pyrimidin-5-amine], the pIC50 was 6.00 to 7.00 in assay [1] (setting [3]) and < 6.00 in assay [1] (setting [4]). Also, the inhibition at 10 µM in assay [2] is < 25%.

`COc1ccc(-c2nc(N)c3nnnn3c2-c2ccc3nccc(C)c3c2)cc1` [1-38, 6-(4-methoxyphenyl)-5-(4-methylquinolin-6-yl)tetrazolo[1,5-a]pyrazin-8-amine] showed a pIC50 in assay [1] (setting [3]) of 6.00 to 7.00. Moreover, the inhibition at 10 µM in assay [2] was < 25%.

In the case of `Cc1ccc(-c2nc(N)nc3c2nnn3Cc2cccc(CO[C@H]3CCOC3)n2)o1` [CPI-444, reference compound], the “A2a @ 100 μM Adenosine (A2a cAMP IC50)” value in assay [1] (HEK293 cells stably expressing human A2a, 100 μM adenosine, 1 hour compound treatment, 10 µM) is on record as “NR (“NR” indicates A2a or A2b mean inhibition is <25% at the top concentration)”. Also, the inhibition at 10 µM in assay [2] is < 25%.

For the compound `Cn1cnc2ccc(-c3c(-c4ccc(F)cc4)nc(N)c4nnnn34)cc21` [1-13, 6-(4-fluorophenyl)-5-(1-methyl-1H-benzo[d]imidazol-6-yl)tetrazolo[1,5-a]pyrazin-8-amine], the results for the pIC50 in assay [1] (setting [3]), in assay [1] (setting [4]) and in assay [2] were > 7.00, 6.00 to 7.00 and 6.00 to 7.00, respectively.

For `COc1ccc(-c2nc(N)n3nnnc3c2-c2cc(Cl)nc(C(F)(F)F)c2)cc1` [1-59, 8-(2-chloro-6-(trifluoromethyl)pyridin-4-yl)-7-(4-methoxyphenyl)tetrazolo[1,5-c]pyrimidin-5-amine], the pIC50 in assay [1] (setting [3]) was 6.00 to 7.00; in assay [1] (setting [4]), < 6.00.

As to `Nc1nc(-c2ccc(F)cc2)c(-c2cc(Cl)c3nccn3c2)n2nnnc12` [1-17, 5-(8-chloroimidazo[1,2-a]pyridin-6-yl)-6-(4-fluorophenyl)tetrazolo[1,5-a]pyrazin-8-amine], in assay [1] (setting [3]), the pIC50 is 6.00 to 7.00. In addition, the inhibition at 10 µM in assay [1] is < 25%.

On to `Cc1c(C#N)cccc1-c1cc(-c2cn(Cc3cccc(C(C)(C)O)n3)nn2)nc(N)n1` [AB928, reference compound], for which the pIC50 in assay [1] (setting [3]) is 6.00 to 7.00; in assay [1] (setting [4]), < 6.00; in assay [2], < 6.00.

Compound `Nc1nc(-c2ccc(F)cc2)c(-c2cc(Cl)nc(C(F)(F)F)c2)n2nnnc12` [1-55, 5-(2-chloro-6-(trifluoromethyl)pyridin-4-yl)-6-(4-fluorophenyl)tetrazolo[1,5-a]pyrazin-8-amine] gave a pIC50 in assay [1] (setting [3]) of 6.00 to 7.00. In assay [1], the inhibition at 10 µM is < 25%.

As to `Cc1nc2ccc(-c3c(-c4ccc(F)cc4)nc(N)c4nnnn34)cn2n1` [1-18, 6-(4-fluorophenyl)-5-(2-methyl-[1,2,4]triazolo[1,5-a]pyridin-6-yl)tetrazolo[1,5-a]pyrazin-8-amine], the pIC50 in assay [1] (setting [3]) was < 6.00. The inhibition at 10 µM in assay [1] was < 25%.

`Cc1cc(-c2c(-c3ccc(F)cc3)nc(N)c3nnnn23)cc(C(F)F)n1` [1-54, 5-(2-(difluoromethyl)-6-methylpyridin-4-yl)-6-(4-fluorophenyl)tetrazolo[1,5-a]pyrazin-8-amine] gave a pIC50 in assay [1] (setting [3]) of 6.00 to 7.00. The inhibition at 10 µM in assay [1] is < 25%.

On to `COc1ccc(-c2nc(N)c3nnnn3c2-c2ccc3ncc(C)n3c2)cc1` [1-56, 6-(4-methoxyphenyl)-5-(3-methylimidazo[1,2-a]pyridin-6-yl)tetrazolo[1,5-a]pyrazin-8-amine], for which the values for the pIC50 in assay [1] (setting [3]) and in assay [1] (setting [4]) were 6.00 to 7.00 and < 6.00, respectively.

In the case of `Nc1nc(-c2ccc(F)cc2)c(-c2ccc3nc[nH]c3c2)c2nnnn12` [1-42, 8-(1H-benzo[d]imidazol-6-yl)-7-(4-fluorophenyl)tetrazolo[1,5-c]pyrimidin-5-amine], the negative-log IC50 (pIC50) in assay [1] (setting [3]) is 6.00 to 7.00.
